Here are results for 19 compounds from patent publication US8940769B2, “Biaryl benzoimidazole derivatives and pharmaceutical composition comprising the same” (Daewoong Pharmaceutical Co., Ltd., priority 2006, dated 2015).

Experiment [1] concerns the target T1, human vanilloid receptor VR-1 (hVR1) (Homo sapiens, UniProt Q8NER1).
T1 construct: expressed in transfected cells; host or cells: HEK293 Tet-on cells (hVR1-HEK293), expression induced with doxycycline
The experiment is described as follows: Calcium influx test of vanilloid receptor (capsaicin-induced, Fluo-3/AM, hVR1-HEK293 cells). It is filed as cell-based. The conditions noted are these: for IC50: calcium influx induced by 1 μM capsaicin, read-out: Inhibitory effect IC50 (nM) on calcium influx; for inhibition at 0.2 µM: single concentration of compound 200 nM, 1 μM capsaicin, read-out: Inhibitory effect (%) on calcium influx. As for the experimental part: In order to measure an activity of the biaryl benzoimidazole derivative of the invention as an antagonist, a calcium influx test was performed.
An hVR1-HEK293 cell line is a cell line, in which a Human Embryonic Kidney (HEK) 293 Tet-on cell is transformed with a human vanilloid-1 gene (pTRE2hyg-hVR1, 7.8 kb). The cell line can regulate a VR-1 expression, depending on the administration of a tetracycline analogue, doxycycline. At two days before the calcium influx test, the cell line was cultured in media containing doxycycline to induce the VR-1 expression, and then used. First, the hVR1-HEK293 cells were cultured in T75 flasks to have a density of about 80%, and then detached from the bottom of the flasks by using trypsin. The detached cells were centrifuged and collected. Then, the cells were suspended in media containing 1 μg/mL doxycycline, and diluted to have a concentration of 2×10^5 to 4×10^5 cells/mL. 100 μL of the suspended cells were added to each well of 96-well black plate, cultured at 37° C. and 5% CO2 cell incubator for two days, and then used in the calcium influx test.
The compound was dissolved in dimethyl sulfoxide (DMSO), and then used for the calcium influx test.
In order to measure the calcium influx […], the cells were cultured in a solution containing Fluo-3/AM, which is a calcium indicator, at 37° C. for 90 minutes, so as to be permeated by a fluorescent dye. […] 193 μL D-PBS were added to each well, and then the compound was added thereto in various concentrations. To measure an activity as an antagonist, the cells were treated with 1 μM capsaicin to stimulate the calcium influx. The inhibitory effect of the compound when calcium influx was induced by 1 μM capsaicin was measured depending on its concentration using a fluorescence spectrometer, and the obtained data were substituted into a hill equation to analyze the values.
The inhibitory effect on calcium influx was measured with a single concentration of the compounds of the invention (200 nM), and the result thereof are shown in Table 2.

For another experiment, the system named is ICR male mouse. The experiment is described as follows: PBQ-induced writhing test (analgesic efficacy). The conditions noted are these: oral administration, PBQ 0.02% intraperitoneal. Type of experiment: in vivo. How it is done:
In order to test analgesic efficacy of the biaryl benzoimidazole derivative of the invention, a PBQ-induced writhing test was performed using a mouse.
A 5-week-old ICR male mouse was used as an experimental animal, and PBQ (phenyl-p-quinone, 0.02%) was used as a chemical stimulator. 20 mg of the test material per mouse body weight were suspended in 10 mL solvent of Na-CMC and saline solution, and then used. […] Between 5 to 10 minutes after administration, the writhing frequency of each subject of the experimental groups was measured, and for the measurement of the analgesic efficacy, the frequency reduction was calculated as compared to a control group by using Equation 1. Inhibitory effect (%)=[(a control group administered with excipient−a group administered with test material)/a control group administered with excipient]×100 [Equation 1]
(An intraperitoneal irritant provokes the stretching counted in writhing tests.)

T1 sequence (Q8NER1 whole entry): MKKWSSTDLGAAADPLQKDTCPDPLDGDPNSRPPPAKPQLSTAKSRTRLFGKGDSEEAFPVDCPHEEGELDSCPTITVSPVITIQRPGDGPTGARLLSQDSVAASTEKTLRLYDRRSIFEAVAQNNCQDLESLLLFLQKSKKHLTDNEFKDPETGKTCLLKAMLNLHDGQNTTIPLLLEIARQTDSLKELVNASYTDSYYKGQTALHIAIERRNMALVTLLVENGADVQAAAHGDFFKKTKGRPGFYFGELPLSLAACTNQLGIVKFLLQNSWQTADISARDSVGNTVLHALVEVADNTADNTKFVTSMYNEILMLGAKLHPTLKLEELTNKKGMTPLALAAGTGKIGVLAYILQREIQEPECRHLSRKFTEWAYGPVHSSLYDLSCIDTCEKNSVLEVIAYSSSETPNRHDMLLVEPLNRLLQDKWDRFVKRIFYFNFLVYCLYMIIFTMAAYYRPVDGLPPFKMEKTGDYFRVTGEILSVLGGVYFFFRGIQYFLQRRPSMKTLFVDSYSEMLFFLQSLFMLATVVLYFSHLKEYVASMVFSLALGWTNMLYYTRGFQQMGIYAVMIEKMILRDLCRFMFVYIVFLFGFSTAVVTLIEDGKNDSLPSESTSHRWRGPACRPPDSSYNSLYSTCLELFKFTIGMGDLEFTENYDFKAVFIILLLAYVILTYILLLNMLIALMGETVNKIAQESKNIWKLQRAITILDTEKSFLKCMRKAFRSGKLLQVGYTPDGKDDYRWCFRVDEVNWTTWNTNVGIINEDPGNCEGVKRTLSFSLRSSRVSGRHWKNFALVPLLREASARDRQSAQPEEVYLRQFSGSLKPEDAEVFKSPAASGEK

For the compound `CC(C)(C)c1ccc2nc(-c3ccc(-c4ncc(CO)cc4Cl)cc3)[nH]c2c1` [Compound 29, {6-[4-(6-tert-butyl-1H-benzoimidazol-2-yl)-phenyl]-5-chloro-pyridin-3-yl}-methanol], in experiment [1], the half-maximal inhibitory concentration (IC50) turned out to be 15.9 nM and the inhibition at 0.2 µM was 74.8%. The “Inhibitory effect (%) on writhing frequency” value (from here on “Inhibitory effect (%)”) in the experiment on ICR male mouse ((1 hour)) was 59 (1 hour) %.
Consider `COC(=O)c1cnc(-c2ccc(-c3nc4ccc(C(C)(C)C)cc4[nH]3)cc2)c(Cl)c1` [Compound 49, 6-[4-(6-tert-butyl-1H-benzoimidazol-2-yl)-phenyl]-5-chloro-nicotinic acid methyl ester], for which, in experiment [1], the IC50 was determined as 23.1 nM and the inhibition at 0.2 µM is 85%. Moreover, in the experiment with ICR male mouse ((2 hour)), the “Inhibitory effect (%)” value is given as 49 (2 hour) %.
In the case of `COC(=O)c1cnc(-c2ccc(-c3nc4ccc(Br)cc4[nH]3)cc2)c(Cl)c1` [Compound 50, 6-[4-(6-bromo-1H-benzoimidazol-2-yl)-phenyl]-5-chloro-nicotinic acid methyl ester], in experiment [1], the concentration for half-maximal inhibition (IC50) turned out to be 62.3 nM and the inhibition at 0.2 µM worked out at 46.4%. The “Inhibitory effect (%)” value with ICR male mouse ((1 hour)) is reported as 19 (1 hour) %.
For the compound `COC(=O)c1cnc(-c2ccc(-c3nc4ccc(N5CCN(C)CC5)cc4[nH]3)nc2)c(Cl)c1` [Compound 72, 3-chloro-6′-[6-(4-methyl-piperazin-1-yl)-1H-benzoimidazol-2-yl]-[2,3′]bipyridinyl-5-carboxylic acid methyl ester], the inhibition at 0.2 µM in experiment [1] was -2.9%. The “Inhibitory effect (%)” value with ICR male mouse ((0.5 hour)) is 31 (0.5 hour) %.
Regarding `COC(=O)c1cnc(-c2ccc(-c3nc4ccc(C(F)(F)F)cc4[nH]3)nc2)c(Cl)c1` [Compound 73, 3-chloro-6′-(6-trifluoromethyl-1H-benzoimidazol-2-yl)-[2,3′]bipyridinyl-5-carboxylic acid methyl ester], in experiment [1], the half-maximal inhibitory concentration (IC50) turned out to be 55.2 nM and the inhibition at 0.2 µM is 56.1%. Further, in the experiment with ICR male mouse ((1 hour)), the “Inhibitory effect (%)” value is 39 (1 hour) %.
On to `COC(=O)c1cnc(-c2ccc(-c3nc4ccc(C(F)(F)F)cc4[nH]3)cc2)c(Cl)c1` [Compound 48, 5-chloro-6-[4-(6-trifluoromethyl-1H-benzoimidazol-2-yl)-phenyl]-nicotinic acid methyl ester], for which, in experiment [1], the 50% inhibitory concentration (IC50) was 55.1 nM and the inhibition at 0.2 µM came out at 38.7%. For the same compound, the “Inhibitory effect (%)” value in the experiment with ICR male mouse ((1 hour)) was 41 (1 hour) %.
`CC(=O)OCc1cnc(-c2ccc(-c3nc4ccc(C(F)(F)F)cc4[nH]3)cc2)c(Cl)c1` [Compound 53, acetic acid 5-chloro-6-[4-(6-trifluoromethyl-1H-benzoimidazol-2-yl)-phenyl]-pyridin-3-yl methyl ester]: in experiment [1], the half-inhibitory concentration (IC50) was 90.4 nM and the inhibition at 0.2 µM is 37.4%. The “Inhibitory effect (%)” value with ICR male mouse ((2 hour)) was 34 (2 hour) %.
Regarding `OCc1cnc(-c2ccc(-c3nc4ccc(Br)cc4[nH]3)cc2)c(Cl)c1` [Compound 30, {6-[4-(6-bromo-1H-benzoimidazol-2-yl)-phenyl]-5-chloro-pyridin-3-yl}-methanol], in experiment [1], the concentration for half-maximal inhibition (IC50) was 171 nM and the inhibition at 0.2 µM turned out to be 27.8%.
On to `CCNC(=O)c1cnc(-c2ccc(-c3nc4c(Br)cc(Br)cc4[nH]3)nc2)c(Cl)c1` [Compound 102, 3-chloro-6′-(4,6-dibromo-1H-benzoimidazol-2-yl)-[2,3′]bipyridinyl-5-carboxylic acid ethyl amide], for which the inhibition at 0.2 µM in experiment [1] was determined as 13.2%.
Take `OCc1cnc(-c2ccc(-c3nc4ccc(N5CCOCC5)cc4[nH]3)nc2)c(Cl)c1` [Compound 87, [3-chloro-6′-(6-morpholin-4-yl-1H-benzoimidazol-2-yl)-[2,3′]bipyridinyl-5-yl]-methanol]: the inhibition at 0.2 µM in experiment [1] amounted to 3.7%.
On the same count and under the same terms, the figure for `CCNC(=O)c1cnc(-c2ccc(-c3nc4ncc(Br)cc4[nH]3)cc2)c(Cl)c1` [Compound 64, 6-[4-(6-bromo-1H-imidazo[4,5-b]pyridin-2-yl)-phenyl]-5-chloro-N-ethyl-nicotinamide] is 11.1%.
With `OCc1cnc(-c2ccc(-c3nc4ccc(C(F)(F)F)cc4[nH]3)cc2)c(Cl)c1` [Compound 28, {5-chloro-6-[4-(6-trifluoromethyl-1H-benzoimidazol-2-yl)-phenyl]-pyridin-3-yl}-methanol], in experiment [1], the IC50 worked out at 181 nM and the inhibition at 0.2 µM is 2.8%.
Consider `OCc1cnc(-c2ccc(-c3nc4ncc(Br)cc4[nH]3)cc2)c(Cl)c1` [Compound 31, {6-[4-(6-bromo-1H-imidazo[4,5-b]pyridin-2-yl)-phenyl]-5-chloro-pyridin-3-yl}-methanol], for which the inhibition at 0.2 µM in experiment [1] came out at 1.7%.
As to `OCc1cnc(-c2ccc(-c3nc4c(Br)cc(C(F)(F)F)cc4[nH]3)nc2)c(Cl)c1` [Compound 93, [6′-(4-bromo-6-trifluoromethyl-1H-benzoimidazol-2-yl)-3-chloro-[2,3′]bipyridinyl-5-yl]-methanol], in experiment [1], the concentration for half-maximal inhibition (IC50) amounted to 129 nM and the inhibition at 0.2 µM stood at 41%.
With `COC(=O)c1cnc(-c2ccc(-c3nc4ncc(Br)cc4[nH]3)nc2)c(Cl)c1` [Compound 76, 6′-(6-bromo-1H-imidazo[4,5-b]pyridin-2-yl)-3-chloro-[2,3′]bipyridinyl-5-carboxylic acid methyl ester], the inhibition at 0.2 µM in experiment [1] turned out to be 7%.
Take `CCNC(=O)c1cnc(-c2ccc(-c3nc4ccc(C(F)(F)F)cc4[nH]3)cc2)c(Cl)c1` [Compound 61, 5-chloro-N-ethyl-6-[4-(6-trifluoromethyl-1H-benzoimidazol-2-yl)-phenyl]-nicotinamide]: the inhibition at 0.2 µM in experiment [1] came out at 23.4%.
Turning to `FC(F)(F)c1ccc2nc(-c3ccc(-c4ncc(CBr)cc4Cl)cc3)[nH]c2c1` [Compound 34, 2-[4-(5-bromomethyl-3-chloro-pyridin-2-yl)-phenyl]-6-trifluoromethyl-1H-benzoimidazole], in experiment [1], the inhibition at 0.2 µM turned out to be 13%.
Consider `O=Cc1cnc(-c2ccc(-c3nc4ccc(C(F)(F)F)cc4[nH]3)cc2)c(Cl)c1` [Compound 58, 5-chloro-6-[4-(6-trifluoromethyl-1H-benzoimidazol-2-yl)-phenyl]-pyridine-3-carbaldehyde], for which, in experiment [1], the IC50 is 94.5 nM and the inhibition at 0.2 µM stood at 39.1%.
On to `O=C(O)c1cnc(-c2ccc(-c3nc4ccc(C(F)(F)F)cc4[nH]3)cc2)c(Cl)c1` [Compound 43, 5-chloro-6-[4-(6-trifluoromethyl-1H-benzoimidazol-2-yl)-phenyl]-nicotinic acid], for which, in experiment [1], the inhibition at 0.2 µM is -3.1%.

By IC50 is commonly meant the point on the concentration scale where inhibition reaches its midpoint.
